In patent US12374538B2, “Systems and methods for quantifying an analyte extracted from a sample” (Purdue Research Foundation, priority 2014, dated 2025):
“And” between values parts separate entries of the source, which are not always exact repeats. Equal values may be shown once.

System: cholinesterase (ChE)
Conditions: human whole blood diluted 10 times, acetylthiocholine 1.8 mg/mL, 5 min incubation in capillary, vs control
Description: For testing of a particular solvent, 5 μL blood sample (diluted) was injected into the capillary with the extraction solvent plug immediately after the mixing the acetylthiocholine into the blood. After the 5 min incubation in capillary, the TCh/ATch ratio was measured using SFME nanoESI MS. For the control, 5 min after the mixing acetylthiocholine into the diluted blood, the sample was taken and analyzed immediately using SFME nanoESI MS with ethyl acetate as the extraction phase. Spray voltage of 1.5 kV was used for nanoESI.
SFME-nanoESI was applied for monitoring the enzymatic activity of cholinesterase (ChE) in whole blood samples. […] The blood sample was diluted 10 times to slow down the reaction rate as well as to facilitate the slug flows for SFME. The substrate acetylthiocholine iodine was added into the diluted blood sample at a concentration of 1.8 mg/mL, and then 5 μL sample was taken immediately and injected into the capillary with 5 μL extraction phase. The capillary with the sample and the extraction solvent was left in room temperature 25° C. for incubation. The SFME-nanoESI could be performed repeatedly on the same sample and the ratio of the substrate ATCh and the reaction product TCh could be monitored as a function of time to characterize the enzymatic activity of the ChE. […]

Row | SMILES | reduction of ChE activity due to contact with extraction solvent
1 | ClC(Cl)Cl [chloroform] | more than 60%
2 | CCOC(C)=O [ethyl acetate] | minimal

System: not given
Conditions: log([solute]octanol/[solute]water), un-ionized compound; cited from earlier work

Row | SMILES | Log P (partition coefficient)
3 | Cc1ccc(/N=C/N(C)/C=N/c2ccc(C)cc2C)c(C)c1 [amitraz] | 5
4 | CN1[C@H]2CC[C@@H]1[C@@H](C(=O)O)[C@@H](OC(=O)c1ccccc1)C2 [benzoylecgonine] | −0.59 and −0.6
5 | CN1C(=O)CC[C@H]1c1cccnc1 [cotinine] | 0.07
6 | N[C@@H](Cc1ccccc1)C(=O)O [phenylalanine] | −1.38
